Measurements from patent US20240391948A1, “NOVEL COMPOUND THAT INHIBITS TNF-ALPHA GENERATION AND INFLAMMASOME ACTIVITY AND PREPARATION METHOD THEREFOR” (SHAPERON INC., priority 2021, published 2024).

Legend:
Format in all cases: cell-based
[1] = system: U937 cells (human monocytic cell line); assay: BzATP-induced IL-1β secretion inhibition in PMA-differentiated U937 cells; conditions: U-937, U937 cells differentiated with PMA, read-out: IL-1β production inhibition grade (IC50)
In short: (§1)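 Inhibition is given as IC50 (μM) in A-D bands, using distinct thresholds for TNF-α and for IL-1β. Secretion followed Pam2CSK4 stimulation (TNF-α) or BzATP stimulation (IL-1β) of compound-pretreated, PMA-differentiated U937 macrophages.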

[2] = system: J774A.1 (Mouse BALB/c monocyte macrophage cell line) cells; assay: LPS-induced TNF-α secretion inhibition in J774A.1 cells; conditions: J774.A1, 1 μM compound, graded compared to taurodeoxycholic acid (positive control), read-out: TNF-α production inhibition grade
In short: (§2)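 Grades (A >100%, B 50–100%, C 20–50%, D <20%) express cytokine suppression by 1 μM compound relative to taurodeoxycholic acid. LPS-induced TNF-α and LPS+ATP-induced IL-1β secretion were measured in murine J774A.1 macrophage cells.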

[3] = system: J774A.1 (Mouse BALB/c monocyte macrophage cell line) cells; assay: LPS+ATP-induced IL-1β secretion inhibition in J774A.1 cells; conditions: J774.A1, 1 μM compound, graded compared to taurodeoxycholic acid (positive control), read-out: IL-1β production inhibition grade
In short: as §2

[4] = system: U937 cells (human monocytic cell line); assay: Pam2CSK4-induced TNF-α secretion inhibition in PMA-differentiated U937 cells; conditions: U-937, U937 cells differentiated with PMA, read-out: TNF-α production inhibition grade (IC50)
In short: as §1

C[C@H](CCC(=O)N[C@@H](C)CS(=O)(=O)O)[C@H]1CC[C@H]2[C@@H]3CC[C@@H]4CC(=O)CC[C@]4(C)[C@H]3CC[C@]12C [NC30028]
IC50 [1]: ≥ 200 nM
inhibition at 1 µM [2]: < 20%
inhibition at 1 µM [3]: < 20%
IC50 [4]: 500 to 1000 nM

C[C@H](CS(=O)(=O)O)NC(=O)CC[C@@H](C)[C@H]1CC[C@H]2[C@@H]3CC[C@@H]4CC(=O)CC[C@]4(C)[C@H]3CC[C@]12C [NC30029]
IC50 [1]: ≥ 200 nM
inhibition at 1 µM [2]: < 20%
inhibition at 1 µM [3]: 20 to 50%
IC50 [4]: 500 to 1000 nM

CC(C)C[C@@H](CS(=O)(=O)O)NC(=O)CC[C@@H](C)[C@H]1CC[C@H]2[C@@H]3CC[C@@H]4CC(=O)CC[C@]4(C)[C@H]3CC[C@]12C [NC30030]
IC50 [1]: ≥ 200 nM
inhibition at 1 µM [2]: < 20%
inhibition at 1 µM [3]: 20 to 50%
IC50 [4]: 500 to 1000 nM

CC(C)C[C@H](CS(=O)(=O)O)NC(=O)CC[C@@H](C)[C@H]1CC[C@H]2[C@@H]3CC[C@@H]4CC(=O)CC[C@]4(C)[C@H]3CC[C@]12C [NC30031]
IC50 [1]: ≥ 200 nM
inhibition at 1 µM [2]: < 20%
inhibition at 1 µM [3]: 20 to 50%
IC50 [4]: 500 to 1000 nM

C[C@H](CCC(=O)N1CC[C@H](S(=O)(=O)O)C1)[C@H]1CC[C@H]2[C@@H]3CC[C@@H]4CC(=O)CC[C@]4(C)[C@H]3CC[C@]12C [NC30033]
IC50 [1]: 50 to 100 nM
inhibition at 1 µM [2]: < 20%
inhibition at 1 µM [3]: 20 to 50%
IC50 [4]: 500 to 1000 nM

C[C@H](CCC(=O)N1CC[C@@H](S(=O)(=O)O)C1)[C@H]1CC[C@H]2[C@@H]3CC[C@@H]4CC(=O)CC[C@]4(C)[C@H]3CC[C@]12C [NC30034]
IC50 [1]: ≥ 200 nM
inhibition at 1 µM [2]: < 20%
inhibition at 1 µM [3]: < 20%
IC50 [4]: 500 to 1000 nM

C[C@H](CCC(=O)N(CCN(C)C)CCS(=O)(=O)O)[C@H]1CC[C@H]2[C@@H]3CC[C@@H]4CC(=O)CC[C@]4(C)[C@H]3CC[C@]12C [NC30035]
IC50 [1]: < 50 nM
inhibition at 1 µM [2]: > 100%
inhibition at 1 µM [3]: > 100%
IC50 [4]: 500 to 1000 nM

C[C@H](CCC(=O)N(CCS(=O)(=O)O)c1ccccc1)[C@H]1CC[C@H]2[C@@H]3CC[C@@H]4CC(=O)CC[C@]4(C)[C@H]3CC[C@]12C [NC30037]
IC50 [1]: < 50 nM
inhibition at 1 µM [2]: 20 to 50%
inhibition at 1 µM [3]: > 100%
IC50 [4]: ≥ 2000 nM

CC[C@H]1[C@@H](O)[C@@H]2[C@H](CC[C@]3(C)[C@@H]([C@H](C)CCC(=O)NCCC(=O)O)CC[C@@H]23)[C@@]2(C)CC[C@@H](O)C[C@@H]12 [NC40002]
IC50 [1]: ≥ 200 nM
inhibition at 1 µM [2]: < 20%
inhibition at 1 µM [3]: 20 to 50%
IC50 [4]: ≥ 2000 nM

CC[C@H]1[C@@H](O)[C@@H]2[C@H](CC[C@]3(C)[C@@H]([C@H](C)CCC(=O)N(C)CCS(=O)(=O)O)CC[C@@H]23)[C@@]2(C)CC[C@@H](O)C[C@@H]12 [NC40004]
IC50 [1]: ≥ 200 nM
inhibition at 1 µM [2]: < 20%
inhibition at 1 µM [3]: 50 to 100%
IC50 [4]: ≥ 2000 nM

CC[C@H]1[C@@H](O)[C@@H]2[C@H](CC[C@]3(C)[C@@H]([C@H](C)CCC(=O)N(CCO)CCS(=O)(=O)O)CC[C@@H]23)[C@@]2(C)CC[C@@H](O)C[C@@H]12 [NC40006]
IC50 [1]: ≥ 200 nM
inhibition at 1 µM [2]: 20 to 50%
inhibition at 1 µM [3]: 50 to 100%
IC50 [4]: 1000 to 2000 nM

CC[C@H]1[C@@H](O)[C@@H]2[C@H](CC[C@]3(C)[C@@H]([C@H](C)CCC(=O)N(CCS(=O)(=O)O)C(C)C)CC[C@@H]23)[C@@]2(C)CC[C@@H](O)C[C@@H]12 [NC40007]
IC50 [1]: ≥ 200 nM
inhibition at 1 µM [2]: < 20%
inhibition at 1 µM [3]: 50 to 100%
IC50 [4]: 1000 to 2000 nM

CC[C@H]1[C@@H](O)[C@@H]2[C@H](CC[C@]3(C)[C@@H]([C@H](C)CCC(=O)N(CCS(=O)(=O)O)C4CCOCC4)CC[C@@H]23)[C@@]2(C)CC[C@@H](O)C[C@@H]12 [NC40008]
IC50 [1]: < 50 nM
inhibition at 1 µM [2]: > 100%
inhibition at 1 µM [3]: > 100%
IC50 [4]: < 500 nM
